In ChEMBL document CHEMBL4507276 (2021) one finds residual activity data, which are given here for two compounds.

SMILES strings stand for the structures.

What all share (conditions): Compound concentration 1000.0 nM
For assay [1], the target named is Serine/threonine-protein kinase PLK1 (Homo sapiens) (UniProt P53350).
The target in assay [2] is Tyrosine-protein kinase Fgr (Homo sapiens) (UniProt P09769).
In assay [3] the target is Cyclin-dependent kinase 4 (Homo sapiens) (UniProt P11802).
Assay [4] has as its target Serine/threonine-protein kinase N2 (Homo sapiens) (UniProt Q16513).
For assay [5], the target named is Platelet-derived growth factor receptor beta (Homo sapiens) (UniProt P09619).
In assay [6] the target is Tyrosine-protein kinase Lyn (Homo sapiens) (UniProt P07948).
The target of assay [7] is Homeodomain-interacting protein kinase 2 (Homo sapiens) (UniProt Q9H2X6).
Assay [8] concerns the target Homeodomain-interacting protein kinase 1 (Homo sapiens) (UniProt Q86Z02).
Assay [9] addresses T1, cAMP-dependent protein kinase catalytic subunit PRKX (Homo sapiens) (UniProt P51817).
T1 sequence (whole entry): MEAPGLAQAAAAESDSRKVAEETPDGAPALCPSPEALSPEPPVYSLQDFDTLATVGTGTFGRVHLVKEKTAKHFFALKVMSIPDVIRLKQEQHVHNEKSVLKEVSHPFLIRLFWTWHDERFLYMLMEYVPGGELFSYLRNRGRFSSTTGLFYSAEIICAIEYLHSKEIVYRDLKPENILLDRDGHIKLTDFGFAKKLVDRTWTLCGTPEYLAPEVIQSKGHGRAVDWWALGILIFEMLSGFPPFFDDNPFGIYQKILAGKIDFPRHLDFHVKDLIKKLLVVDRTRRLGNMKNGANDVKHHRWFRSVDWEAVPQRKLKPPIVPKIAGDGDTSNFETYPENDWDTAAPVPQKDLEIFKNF

Assay [10] has as its target Serine/threonine-protein kinase WNK4 (Homo sapiens) (UniProt Q96J92).
For assay [11], the target named is T2, Serine/threonine-protein kinase Nek1 (Homo sapiens) (UniProt Q96PY6).
T2 sequence (whole entry): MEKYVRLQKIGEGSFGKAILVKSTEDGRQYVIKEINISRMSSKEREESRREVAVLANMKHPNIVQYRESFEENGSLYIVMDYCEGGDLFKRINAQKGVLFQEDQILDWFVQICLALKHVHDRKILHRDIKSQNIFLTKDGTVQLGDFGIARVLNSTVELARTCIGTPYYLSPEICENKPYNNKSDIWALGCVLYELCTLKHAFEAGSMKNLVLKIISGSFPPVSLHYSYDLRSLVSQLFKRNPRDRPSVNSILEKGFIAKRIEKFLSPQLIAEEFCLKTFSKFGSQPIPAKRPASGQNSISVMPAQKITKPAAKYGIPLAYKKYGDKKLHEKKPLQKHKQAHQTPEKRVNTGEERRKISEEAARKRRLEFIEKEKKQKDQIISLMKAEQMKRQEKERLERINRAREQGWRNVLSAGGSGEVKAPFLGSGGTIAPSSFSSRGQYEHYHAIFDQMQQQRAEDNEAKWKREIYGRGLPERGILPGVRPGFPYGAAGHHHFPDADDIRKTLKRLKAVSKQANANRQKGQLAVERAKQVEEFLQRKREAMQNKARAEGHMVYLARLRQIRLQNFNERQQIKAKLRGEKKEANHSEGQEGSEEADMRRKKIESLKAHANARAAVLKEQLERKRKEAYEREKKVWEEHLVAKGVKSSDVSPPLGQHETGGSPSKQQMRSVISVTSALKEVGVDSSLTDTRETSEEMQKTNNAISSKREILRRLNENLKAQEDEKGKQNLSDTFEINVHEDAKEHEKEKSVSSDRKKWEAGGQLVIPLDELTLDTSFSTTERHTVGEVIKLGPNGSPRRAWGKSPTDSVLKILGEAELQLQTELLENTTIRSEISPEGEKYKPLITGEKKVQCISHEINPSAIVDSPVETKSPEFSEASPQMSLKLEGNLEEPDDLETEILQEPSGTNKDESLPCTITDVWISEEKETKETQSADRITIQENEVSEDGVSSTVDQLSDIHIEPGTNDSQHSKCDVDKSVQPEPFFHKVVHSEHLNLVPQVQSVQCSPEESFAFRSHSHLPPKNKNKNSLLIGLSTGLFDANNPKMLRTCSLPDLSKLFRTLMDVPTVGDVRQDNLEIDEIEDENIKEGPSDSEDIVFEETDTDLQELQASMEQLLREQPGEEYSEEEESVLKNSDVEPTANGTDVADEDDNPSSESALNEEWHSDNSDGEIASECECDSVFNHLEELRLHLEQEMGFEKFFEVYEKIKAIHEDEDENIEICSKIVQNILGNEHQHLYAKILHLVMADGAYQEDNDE

The target in assay [12] is Cyclin-dependent kinase 13 (Homo sapiens) (UniProt Q14004).
For assay [13], the target named is Serine/threonine-protein kinase WNK2 (Homo sapiens) (UniProt Q9Y3S1).
Chain of Serine/threonine-protein kinase WNK2 (Homo sapiens) (Q9Y3S1 whole entry): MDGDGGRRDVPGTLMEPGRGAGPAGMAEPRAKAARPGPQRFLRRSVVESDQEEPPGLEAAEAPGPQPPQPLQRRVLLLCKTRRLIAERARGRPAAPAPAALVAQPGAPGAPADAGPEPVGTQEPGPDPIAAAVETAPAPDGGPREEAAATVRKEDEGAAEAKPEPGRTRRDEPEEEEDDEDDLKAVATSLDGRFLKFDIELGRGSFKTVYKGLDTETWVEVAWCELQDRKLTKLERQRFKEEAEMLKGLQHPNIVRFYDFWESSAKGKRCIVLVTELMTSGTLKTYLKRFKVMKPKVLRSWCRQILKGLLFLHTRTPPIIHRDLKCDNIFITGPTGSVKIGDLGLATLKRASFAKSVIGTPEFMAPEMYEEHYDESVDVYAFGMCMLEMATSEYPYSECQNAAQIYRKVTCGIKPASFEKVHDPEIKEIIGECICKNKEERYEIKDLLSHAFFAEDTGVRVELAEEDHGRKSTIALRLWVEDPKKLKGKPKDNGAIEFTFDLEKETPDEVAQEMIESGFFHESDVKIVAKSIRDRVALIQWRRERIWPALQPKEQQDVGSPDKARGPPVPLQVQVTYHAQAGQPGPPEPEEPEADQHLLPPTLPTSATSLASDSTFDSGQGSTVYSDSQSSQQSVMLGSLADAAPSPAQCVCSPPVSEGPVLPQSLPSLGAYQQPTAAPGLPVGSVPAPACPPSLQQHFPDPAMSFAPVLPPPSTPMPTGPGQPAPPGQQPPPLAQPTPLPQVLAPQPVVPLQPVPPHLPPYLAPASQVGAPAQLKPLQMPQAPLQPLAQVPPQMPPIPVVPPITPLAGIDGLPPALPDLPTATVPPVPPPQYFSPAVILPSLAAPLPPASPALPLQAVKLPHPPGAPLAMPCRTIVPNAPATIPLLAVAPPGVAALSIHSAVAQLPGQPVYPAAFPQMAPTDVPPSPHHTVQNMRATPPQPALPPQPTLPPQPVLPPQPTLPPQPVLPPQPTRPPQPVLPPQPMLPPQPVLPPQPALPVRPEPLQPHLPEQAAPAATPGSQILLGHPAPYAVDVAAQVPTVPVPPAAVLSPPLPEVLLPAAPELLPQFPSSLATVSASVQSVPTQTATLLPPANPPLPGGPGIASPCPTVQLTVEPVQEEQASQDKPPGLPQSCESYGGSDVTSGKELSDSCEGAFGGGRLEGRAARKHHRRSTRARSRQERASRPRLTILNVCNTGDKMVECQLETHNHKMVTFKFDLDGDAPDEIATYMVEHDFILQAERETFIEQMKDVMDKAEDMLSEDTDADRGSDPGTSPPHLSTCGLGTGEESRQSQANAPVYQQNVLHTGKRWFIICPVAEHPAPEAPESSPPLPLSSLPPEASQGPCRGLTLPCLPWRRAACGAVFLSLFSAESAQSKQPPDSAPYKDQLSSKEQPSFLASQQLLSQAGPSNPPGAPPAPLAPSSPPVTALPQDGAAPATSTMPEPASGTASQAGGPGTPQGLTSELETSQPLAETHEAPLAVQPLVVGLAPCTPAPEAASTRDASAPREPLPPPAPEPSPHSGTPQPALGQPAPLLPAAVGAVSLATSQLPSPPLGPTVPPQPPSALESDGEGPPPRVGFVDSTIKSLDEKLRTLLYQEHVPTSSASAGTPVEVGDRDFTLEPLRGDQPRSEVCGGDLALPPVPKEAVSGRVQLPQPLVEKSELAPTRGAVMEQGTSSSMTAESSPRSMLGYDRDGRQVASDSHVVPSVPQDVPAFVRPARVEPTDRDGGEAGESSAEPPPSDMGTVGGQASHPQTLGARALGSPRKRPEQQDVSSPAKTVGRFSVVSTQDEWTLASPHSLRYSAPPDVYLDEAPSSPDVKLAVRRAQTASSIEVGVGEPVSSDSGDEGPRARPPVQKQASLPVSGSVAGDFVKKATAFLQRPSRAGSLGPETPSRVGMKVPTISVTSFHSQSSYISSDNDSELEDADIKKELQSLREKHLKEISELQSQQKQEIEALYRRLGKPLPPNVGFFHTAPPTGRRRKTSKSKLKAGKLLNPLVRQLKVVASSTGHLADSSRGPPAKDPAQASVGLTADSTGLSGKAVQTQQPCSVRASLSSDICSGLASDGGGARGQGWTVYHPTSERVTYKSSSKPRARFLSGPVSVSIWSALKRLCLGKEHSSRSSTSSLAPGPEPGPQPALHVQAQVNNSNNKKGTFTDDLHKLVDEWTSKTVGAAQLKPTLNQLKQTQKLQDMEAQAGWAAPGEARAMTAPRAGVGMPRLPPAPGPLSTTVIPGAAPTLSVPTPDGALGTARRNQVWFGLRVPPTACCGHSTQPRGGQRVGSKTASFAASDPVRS
Assay [14] addresses Mitogen-activated protein kinase kinase kinase kinase 3 (Homo sapiens) (UniProt Q8IVH8).
Assay [15] deals with Dual specificity mitogen-activated protein kinase kinase 7 (Homo sapiens) (UniProt O14733).
Chain of Dual specificity mitogen-activated protein kinase kinase 7 (Homo sapiens) (O14733 whole entry): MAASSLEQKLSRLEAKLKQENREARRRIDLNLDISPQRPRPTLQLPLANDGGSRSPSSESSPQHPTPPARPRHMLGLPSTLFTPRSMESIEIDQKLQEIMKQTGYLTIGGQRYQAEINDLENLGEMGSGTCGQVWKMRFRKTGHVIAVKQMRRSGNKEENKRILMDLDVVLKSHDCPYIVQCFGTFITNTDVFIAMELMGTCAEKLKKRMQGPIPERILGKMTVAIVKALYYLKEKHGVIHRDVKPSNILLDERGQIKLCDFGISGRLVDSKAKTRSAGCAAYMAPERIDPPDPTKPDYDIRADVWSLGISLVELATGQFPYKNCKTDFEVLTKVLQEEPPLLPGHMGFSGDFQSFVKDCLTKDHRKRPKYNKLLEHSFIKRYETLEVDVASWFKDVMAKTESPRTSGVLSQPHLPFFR
The target in assay [16] is Serine/threonine-protein kinase 32A (Homo sapiens) (UniProt Q8WU08).
Chain of Serine/threonine-protein kinase 32A (Homo sapiens) (Q8WU08 whole entry): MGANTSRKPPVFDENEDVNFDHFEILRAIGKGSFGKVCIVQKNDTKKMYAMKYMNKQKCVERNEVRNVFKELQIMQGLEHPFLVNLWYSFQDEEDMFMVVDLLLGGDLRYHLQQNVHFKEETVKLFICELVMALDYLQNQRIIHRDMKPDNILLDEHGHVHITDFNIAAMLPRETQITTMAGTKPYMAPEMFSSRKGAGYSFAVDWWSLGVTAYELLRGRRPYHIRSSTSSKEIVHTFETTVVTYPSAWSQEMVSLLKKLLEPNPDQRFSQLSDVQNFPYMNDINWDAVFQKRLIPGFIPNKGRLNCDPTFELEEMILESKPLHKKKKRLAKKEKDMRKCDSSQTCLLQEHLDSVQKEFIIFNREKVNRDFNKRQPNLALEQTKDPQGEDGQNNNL
The target of assay [17] is Serine/threonine-protein kinase NIM1 (Homo sapiens) (UniProt Q8IY84).
Chain of Serine/threonine-protein kinase NIM1 (Homo sapiens) (Q8IY84 whole entry): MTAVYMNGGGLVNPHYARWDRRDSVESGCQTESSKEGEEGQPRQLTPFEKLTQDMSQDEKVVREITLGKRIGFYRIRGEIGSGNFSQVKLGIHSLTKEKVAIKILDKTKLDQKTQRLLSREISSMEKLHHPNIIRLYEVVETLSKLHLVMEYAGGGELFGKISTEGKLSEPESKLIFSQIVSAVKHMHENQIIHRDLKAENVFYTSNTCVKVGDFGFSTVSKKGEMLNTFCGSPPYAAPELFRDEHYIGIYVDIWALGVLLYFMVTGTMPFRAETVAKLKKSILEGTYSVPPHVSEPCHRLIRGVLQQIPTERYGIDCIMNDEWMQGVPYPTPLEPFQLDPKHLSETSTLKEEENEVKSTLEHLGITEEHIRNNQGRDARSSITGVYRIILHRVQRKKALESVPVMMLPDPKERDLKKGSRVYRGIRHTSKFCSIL
Assay [18] has as its target Tyrosine-protein kinase receptor Tie-1 (Homo sapiens) (UniProt P35590).
For assay [19], the target named is STE20-like serine/threonine-protein kinase (Homo sapiens) (UniProt Q9H2G2).
Assay [20] concerns Mast/stem cell growth factor receptor Kit (Homo sapiens), P10721 [D816H].

Chain of Serine/threonine-protein kinase PLK1 (Homo sapiens) (P53350 whole entry): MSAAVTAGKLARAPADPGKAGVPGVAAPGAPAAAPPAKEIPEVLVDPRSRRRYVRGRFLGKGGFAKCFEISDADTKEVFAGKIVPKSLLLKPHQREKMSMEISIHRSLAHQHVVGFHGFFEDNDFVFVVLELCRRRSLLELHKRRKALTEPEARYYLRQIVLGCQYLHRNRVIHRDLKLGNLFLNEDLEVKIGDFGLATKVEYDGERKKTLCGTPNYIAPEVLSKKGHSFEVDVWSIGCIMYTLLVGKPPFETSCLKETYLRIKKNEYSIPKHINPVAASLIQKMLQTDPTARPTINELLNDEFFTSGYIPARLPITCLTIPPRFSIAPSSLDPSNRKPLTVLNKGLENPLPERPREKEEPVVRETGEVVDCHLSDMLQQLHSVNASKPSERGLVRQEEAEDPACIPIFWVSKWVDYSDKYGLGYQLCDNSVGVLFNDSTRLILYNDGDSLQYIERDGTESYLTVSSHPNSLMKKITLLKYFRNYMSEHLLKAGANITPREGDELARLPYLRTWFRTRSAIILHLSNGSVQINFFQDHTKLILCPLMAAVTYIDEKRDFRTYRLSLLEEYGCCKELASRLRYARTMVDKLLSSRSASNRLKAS
Chain of Cyclin-dependent kinase 4 (Homo sapiens) (P11802 whole entry): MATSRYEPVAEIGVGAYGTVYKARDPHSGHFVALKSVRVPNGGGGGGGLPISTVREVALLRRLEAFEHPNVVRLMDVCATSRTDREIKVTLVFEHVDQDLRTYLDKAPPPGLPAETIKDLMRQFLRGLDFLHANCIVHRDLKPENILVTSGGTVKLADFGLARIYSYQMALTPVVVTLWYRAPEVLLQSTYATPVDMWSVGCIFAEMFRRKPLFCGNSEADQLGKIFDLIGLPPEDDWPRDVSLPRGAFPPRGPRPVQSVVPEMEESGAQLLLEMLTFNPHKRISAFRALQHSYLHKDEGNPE
Chain of Tyrosine-protein kinase Fgr (Homo sapiens) (P09769 2-529 limits assumed): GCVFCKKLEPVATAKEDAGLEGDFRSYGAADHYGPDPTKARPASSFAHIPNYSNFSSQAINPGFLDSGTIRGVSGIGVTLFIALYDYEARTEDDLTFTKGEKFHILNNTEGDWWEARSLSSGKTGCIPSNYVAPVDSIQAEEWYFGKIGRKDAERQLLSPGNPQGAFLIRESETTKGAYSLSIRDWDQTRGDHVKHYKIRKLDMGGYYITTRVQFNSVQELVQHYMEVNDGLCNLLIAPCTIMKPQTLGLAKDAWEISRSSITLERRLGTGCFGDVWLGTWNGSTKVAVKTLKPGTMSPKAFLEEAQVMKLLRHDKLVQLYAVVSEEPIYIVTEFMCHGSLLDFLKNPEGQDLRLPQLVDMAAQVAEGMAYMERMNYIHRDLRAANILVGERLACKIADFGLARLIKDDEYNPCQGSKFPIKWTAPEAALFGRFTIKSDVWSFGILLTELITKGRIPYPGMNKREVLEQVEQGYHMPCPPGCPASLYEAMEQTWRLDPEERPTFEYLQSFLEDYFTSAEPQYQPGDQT

Take `CN(C)C(=O)Cn1cc(-c2nc(C3(c4ccc(-c5cnc(N)nc5)cc4)CC3)no2)cn1` [BI 0153]: the residual activity is 82% in assay [1]; 100% in assay [2]; 44% in assay [3]; 77% in [4]; 94% in assay [5]; 79% in assay [6]. Also, the residual activity in assay [7] was 94%; in assay [8], 63%; in assay [9], 100%; in assay [10] it was 80%; in [11], 100%; in [12], 91%. Besides, the residual activity in assay [13] is 67%; in [14] it was 89%; in assay [15] it was 87%; in [16], 97%; in [17] it was 83%; in assay [18], 98%. Further, the residual activity in assay [19] was 77%; in [20] it was 85%.

In the case of `CN(C)C(=O)Cn1cc(-c2nc([C@@](C)(c3ccc(-c4cnc(N)nc4)cc3)C3CC3)no2)cn1` [BI 665915], the residual activity is 77% in assay [1]; 100% in assay [2]; 94% in [3]; 100% in [4]; 82% in assay [5]; 87% in [6]. Further, the residual activity is 87% in assay [7]; 96% in assay [8]; 100% in [9]; 93% in assay [10]; 100% in [11]; 83% in [12]. Also, the residual activity was 100% in assay [13]; 100% in assay [14]; 94% in [15]; 83% in assay [16]; 86% in assay [17]; 90% in assay [18]. The results for the residual activity in [19] and in assay [20] were 94% and 100%, respectively.
